Test results: patent publication US20220280472A1, “TREATMENT OF PULMONARY FIBROSIS USING INHIBITORS OF NEU1 SIALIDASE” (University of Maryland, Baltimore, priority 2019, published 2022)
pIC50: −log10 of the molar value. Entries after “also recorded” stand apart in the source; their conditions may differ.

Assays:
[1] = tested on: total lung sialidase (NEU) activity; assay: Total sialidase (NEU) activity for 4-MU-NANA in mouse lung after in vivo dosing; set-up: lung sialidase activity: dose or concentration left out as unconfirmed; details: for total lung sialidase activity: 15 mg/kg ip, harvested 18 h later
Procedure: Wild-type female C57BL/6 mice aged 10-12 weeks and weighing 18-20 g (The Jackson Laboratory, Bar Harbor, Me.) were treated in accordance with a research protocol approved by the University of Maryland Institutional Animal Care and Use Committee. Animals were maintained in sterile microisolator cages with sterile rodent feed and water in the Baltimore VA Medical Center Research Animal Facility approved by the Association for Assessment and Accreditation of Laboratory Animal Care. To model pulmonary inflammation and fibrosis, a single dose of 0.075 U of bleomycin (BLM)(Sigma-Aldrich, St. Louis, Mo.) diluted in 50 μl of sterile phosphate-buffered saline (PBS) was intratracheally (i.t.) delivered to mouse lungs on day 0. Briefly, a minor anterior midline neck incision was made to reveal the trachea, and a MicroSprayer® (Penn-Century, Wyndmoor, Philadelphia, Pa.) was inserted i.t., and the bleomycin or sterile PBS alone instilled. […] On day 14, mice were euthanized by CO2 asphyxiation followed by cervical dislocation. Immediately postmortem, bronchoalveolar lavage fluid (BALF)s and lungs were harvested. BALF samples were collected and analyzed. Installation and withdrawal of 1 ml of PBS twice via an 18-gauge blunt-end needle secured in the trachea were performed in each animal The 2 aliquots of BALF were pooled, centrifuged, and total and differential cell counts performed. The lungs were processed for qRT-PCR, to measure levels for NEU 1-4, PPCA, collagen 1α2, and collagen 3α1transcripts, quantitative immunoblotting for NEU1-4 and PPCA proteins, and determination of hydroxyproline as a measure of total collagen. In selected experiments, lung tissue was processed for assays of total sialidase activity for fluorogenic substrate, 2′-(4-methylumbelliferyl)-α-D-N-acetylneuraminic acid (4-MU-NANA) and peanut agglutinin (PNA) lectin blotting as an indicator of desialylation.
Fluorometric Assay for Sialidase Activity: Lungs harvested from mice pretreated with one of three sialidase inhibitors or saline alone were weighed, homogenized, centrifuged, and the supernatants collected. These samples and SAECs, HPMECs, and NHLFs preincubated with increasing concentrations of the NEU1-selective NEU inhibitor, III-32B5 were suspended in 200μλ of 500 mM sodium acetate, pH 4.4 containing 0.1% Triton X-100, and a protease inhibitor mixture (Roche Applied Science), and then incubated for 1 h at 37° C. with 25 μl of 2.0 mM 2′-(4-methylumbelliferyl)-α-D-N-acetylneuraminic acid (4-MU-NANA), mixing the tubes every 15 min. The NEU reaction was terminated by addition of 133 mM glycine, pH 10.3, 60 mM NaCl, and 0,083 M […] after which the fluorescence intensity was measured with a Bio-Rad fluorometer (excitation at 355 nm; emission at 460 nm). […]

[2] = tested on: BALF cell sialidase activity; assay: Total BALF cell sialidase activity after in vivo dosing; set-up: species or system mouse; details: 15 mg/kg ip, re-injected after 24 h, harvested 18 h later; vs saline
Procedure: Fluorometric Assay for Sialidase Activity: Lungs harvested from mice pretreated with one of three sialidase inhibitors or saline alone were weighed, homogenized, centrifuged, and the supernatants collected. These samples and SAECs, HPMECs, and NHLFs preincubated with increasing concentrations of the NEU1-selective NEU inhibitor, III-32B5 were suspended in 200μλ of 500 mM sodium acetate, pH 4.4 containing 0.1% Triton X-100, and a protease inhibitor mixture (Roche Applied Science), and then incubated for 1 h at 37° C. with 25 μl of 2.0 mM 2′-(4-methylumbelliferyl)-α-D-N-acetylneuraminic acid (4-MU-NANA), mixing the tubes every 15 min. The NEU reaction was terminated by addition of 133 mM glycine, pH 10.3, 60 mM NaCl, and 0,083 M […] after which the fluorescence intensity was measured with a Bio-Rad fluorometer (excitation at 355 nm; emission at 460 nm).
After 24 h, the mice were administered these same injections, and 18 h later, were euthanized and their BALFs and lungs harvested. The lungs were processed for total protein levels and total sialidase activity. […] The BALFs from these same mice were processed for cell counts and sialidase activity. […] These findings establish the ability of each of 2 NEU1-selective pharmacologic inhibitors to profoundly reduce total lung and BALF cell sialidase activity in vivo. The NEU1 inhibitor can comprise C1-methyl esters of the compounds.

[3] = tested on: bleomycin-challenged C57BL/6 mice; assay: Bleomycin-induced pulmonary fibrosis model; format: in vivo, mouse; details: for BALF total cell counts, lymphocytes, and neutrophils / lung collagen mRNA (collagen 1A2, collagen 3A1; qRT-PCR) / lung collagen protein (hydroxyproline-based QuickZyme assay): 15 mg/kg i.p. daily days 8-14, day 14, vs bleomycin alone; for total body weight: 15 mg/kg i.p. daily on days 8-14 after bleomycin, by day 14
Procedure: Wild-type female C57BL/6 mice aged 10-12 weeks and weighing 18-20 g (The Jackson Laboratory, Bar Harbor, Me.) were treated in accordance with a research protocol approved by the University of Maryland Institutional Animal Care and Use Committee. Animals were maintained in sterile microisolator cages with sterile rodent feed and water in the Baltimore VA Medical Center Research Animal Facility approved by the Association for Assessment and Accreditation of Laboratory Animal Care. To model pulmonary inflammation and fibrosis, a single dose of 0.075 U of bleomycin (BLM)(Sigma-Aldrich, St. Louis, Mo.) diluted in 50 μl of sterile phosphate-buffered saline (PBS) was intratracheally (i.t.) delivered to mouse lungs on day 0. Briefly, a minor anterior midline neck incision was made to reveal the trachea, and a MicroSprayer® (Penn-Century, Wyndmoor, Philadelphia, Pa.) was inserted i.t., and the bleomycin or sterile PBS alone instilled. Mice were serially weighed, and on days 8-14, daily administered intraperitoneally (i. p.) with 15 mg/kg of 2DN, or […], or III-32B5, or vehicle alone. On day 14, mice were euthanized by CO2 asphyxiation followed by cervical dislocation. Immediately postmortem, bronchoalveolar lavage fluid (BALF)s and lungs were harvested. BALF samples were collected and analyzed. Installation and withdrawal of 1 ml of PBS twice via an 18-gauge blunt-end needle secured in the trachea were performed in each animal The 2 aliquots of BALF were pooled, centrifuged, and total and differential cell counts performed. […] Total cellular RNA was extracted from murine lung tissue. RNA purity was established with the A260/A280 absorption ratio (>1.90). Total RNA (1.0 μg) was treated with DNase I (Invitrogen) for 15 min and reverse transcribed using avian myeloblastosis virus reverse transcriptase and poly(T) primer (Promega). The resulting cDNA was quantified by real time quantitative reverse transcription-polymerase chain reaction (qRT-PCR) using SYBR Green PCR Master Mix and ABI Prism 7900HT cycler. […] Measurement of Total Lung Collagen: Collagen content was measured in lung tissue based on detection of hydroxyproline, using the Total Collagen Assay kit from QuickZyme (Leiden, The Netherlands). Briefly, following hydrolysis of 50 mg lung tissue in […] of 6M HCl for 20 h at 95° C., the hydrolysate was diluted 10-fold with 4M HCl and measured against serial dilutions of collagen standard; the results were expressed as μg collagen per mg wet lung tissue. Mice challenged I.T. with bleomycin were serially weighed, and on days 8-14, daily administered i.p. 2DN or vehicle alone. On day 14, mice were sacrificed, and BALF and lungs harvested. The BALF was processed for total and differential cell counts, and lung tissues were collagenase-digested for lymphocyte counts and flow cytometry, processed for qRT-PCR for collagen mRNA expression, or homogenized for hydroxyproline-based assays to quantify collagen protein (FIG. 1C, 1D, 1E). In all bleomycin-challenged mice, total body weight decreased through days 1-7 (FIG. 1B). While the saline-injected, bleomycin-challenged mice continued to lose body weight through the 14-day study period, on days ≥9, the 2DN-treated, bleomycin-administered mice maintained and even increased body weight. […] On day 14, total and differential BALF cell counts were performed (FIG. 1C). In the PBS-injected, bleomycin-challenged mice, total cell counts, macrophages, lymphocytes, and neutrophils each were increased compared to BALF cell counts for the simultaneous saline controls. The addition of broad-spectrum NEU inhibition with 2DN reversed the increased in total cell counts, lymphocytes, and neutrophils, each compared to counts in the PBS-injected, bleomycin-challenged mice. In these same mice, lung homogenates were processed for qRT-PCR using primers for collagen 1A2 and collagen 3A1 to quantify their mRNA expression (FIG. 1D). […]

[4] = tested on: SAECs (human primary small airway epithelial cells); assay: Fluorometric sialidase activity assay (4-MU-NANA) in SAECs; format: cell-based; details: increasing concentrations; 1.0×10^6 cells/reaction
Procedure: (§1) Human Lung Cell Cultures: Human primary small airway epithelial cell (SAEC)s isolated from the distal portion of the bronchioles and human primary pulmonary microvascular endothelial cell (HPMEC)s were purchased from Promocell (Heidelberg, Germany) SAECs were cultured in predefined small airway growth medium containing hydrocortisone, human epidermal growth factor, epinephrine, transferrin, insulin, retinoic acid, triiodothyronine, and fatty acid-free bovine serum albumin. Only SAEC passaged 2-4 were studied. HPMECs were cultured in endothelial cell growth medium (MV-2, PromoCell) containing growth medium supplement mix (PromoCell). Only HPMEC passages 4-7 were studied. Primary normal human lung fibroblast (NHLF)s were either isolated from normal lungs initially harvested from lung […] but ultimately not used in a study approved by the Institutional Review Board at the University of Maryland, or purchased from Lonza (Walkersville, Md.). […]
(§2) Fluorometric Assay for Sialidase Activity: Lungs harvested from mice pretreated with one of three sialidase inhibitors or saline alone were weighed, homogenized, centrifuged, and the supernatants collected. […] The NEU reaction was terminated by addition of 133 mM glycine, pH 10.3, 60 mM NaCl, and 0,083 M […] after which the fluorescence intensity was measured with a Bio-Rad fluorometer (excitation at 355 nm; emission at 460 nm). […]

[5] = tested on: HPMECs (human primary pulmonary microvascular endothelial cells); assay: Fluorometric sialidase activity assay (4-MU-NANA) in HPMECs; format: cell-based; details: increasing concentrations; 1.0×10^6 cells/reaction
Procedure: as §1, §2

[6] = tested on: HLFs (human lung fibroblasts); assay: Fluorometric sialidase activity assay (4-MU-NANA) in HLFs; format: cell-based; details: increasing concentrations; 1.0×10^6 cells/reaction
Procedure: as §1, §2

[7] = tested on: bleomycin-challenged C57BL/6 mice; assay: Bleomycin-induced pulmonary fibrosis model; format: in vivo, mouse; details: 15 mg/kg; FIG. 6A
[8] = tested on: SAECs (human primary small airway epithelial cells); details: cited from earlier work
[9] = tested on: HPMECs (human primary pulmonary microvascular endothelial cells); details: cited from earlier work
[10] = tested on: HLFs (human lung fibroblasts); details: cited from earlier work
NEUs 2-4 = details: cited from earlier work
[11] = re-injected after 24 h, vs saline

SMILES	total lung sialidase activity [1, 11]	total BALF cell sialidase activity [2]	BALF total cell counts, lymphocytes, and neutrophils [3]	lung collagen mRNA (collagen 1A2, collagen 3A1; qRT-PCR) [3]	lung collagen protein (hydroxyproline-based QuickZyme assay) [3]	total body weight [3]	sialidase activity in SAECs [4]	sialidase activity in HPMECs [5]	sialidase activity in HLFs [6]	lung sialidase activity [1]	14-day collagen deposition, mean value ([3]; mice receiving both BLM and C9-BADANA, BLM alone 13.4±2.1 μg/mg) [µg/mg]	lung collagen deposition [7]	sialidase activity in human airway epithelia, previously reported [8]	sialidase activity in human lung microvascular endothelia, previously reported [9]	sialidase activity in human lung fibroblasts, previously reported [10]	pIC50 (NEUs 2-4)	reduction of total NEU activity in lung ([1]; 15 mg/kg i.p., re-injected after 24 h, lungs harvested 18 h later, vs saline)
CCCCCC(=O)N[C@H]1[C@H]([C@@H](O)[C@@H](O)CNC(C)=O)OC(C(=O)O)=C[C@@H]1O [III-32B5, C5-hexanamido-C9-acetamido-DANA]	reduced	reduced	reversed	protected against	protected against; also recorded: significantly decreased	returning to their pretreatment baselines; also recorded: counteracted	dose-dependently inhibited	dose-dependently inhibited	dose-dependently inhibited	–	–	–	–	–	–	–	–
CCCCC(=O)NC[C@H](O)[C@H](O)[C@@H]1OC(C(=O)O)=C[C@H](O)[C@H]1NC(C)=O [C9-BADANA]	reduced	reduced	reversed	protected against	protected against; also recorded: significantly decreased	returning to their pretreatment baselines; also recorded: counteracted	–	–	–	dramatically reduces	8.6 ± 1.7	dramatically reduces	inhibition	inhibition	inhibition	< 3.00	–
CC(=O)N[C@H]1[C@H]([C@H](O)[C@H](O)CO)OC(C(=O)O)C[C@@H]1O (stereo partly drawn) [2DN, 2-deoxy-N-acetyneuraminic acid, reference compound]	–	–	reversed	reduced	reversed	returned to their pretreatment baseline	–	–	–	–	–	–	inhibition	inhibition	inhibition	–	at least 8 fold
